# Measurements as given in patent publication US20210353517A1, “PROCESS FOR PRODUCING A BIO-BASED SURFACTANT” (University College Dublin, priority 2018, published 2021).
# Key:
# Assay type in all cases: physicochemical
# [1] = Drop shape analysis (wettability, dynamic contact angle); conditions: solution at its CMC added to 20 μL deionised water drop
# Protocol: The dynamic behaviour of a 20 μL deionised water drop after the addition of an equal volume of surfactant solution at critical micelle concentration was recorded with a video recording system and analysed by a dedicated plug-in (LB-ADSA) of ImageJ® software for image analysis. The sessile drop is positioned on a smooth and plan surface of a borosilicate glass slide without any microdefects. A contour recognition is initially carried out based on a grey-scale analysis of the image. In the second step, a geometrical model describing the drop shape is fitted to the contour. The contact angle is the angle between the calculated drop shape function and the sample surface.
# [2] = Surface tension analysis (DuNOUY ring tensiometer); conditions: at parity of concentration (w/v), 25° C., relative to SDS
# Protocol: Surface tension analysis was performed with an interfacial tensiometer Cenco DuNOUY® 70545 model. In this methodology, a ring-shaped steel tool is pulled up from a surfactant solution and the corresponding millinewton per meter (mN/m) of force applied to break the surface tension is indicated. Increasingly diluted surfactant solutions are measured until the reference value of deionised water is reached (72 mN/m). The measurements were performed at 25° C.
# Foaming stability = conditions: 10 s stirring at 1500 rpm, at respective CMC values
# [3] = Critical micelle concentration by conductivity assay; conditions: conductivity at 25° C., relative to SDS
# Protocol: Critical micelle concentration was estimated by a conductivity assay. In this assay a pen type EC-963 model conductivity meter tester was submerged into a milliQ® grade deionised water solution to have a zero reading of pS/cm. Increasing amounts of different surfactant solutions was added to this milliQ® water solution and the conductivity was measured at 25° C. The increasing conductivity is proportional to the surfactant activity. The change of slope in the two linear interpolating curves is an indication of the critical micelle concentration (CMC) point for the specific surfactant (Al-Soufi et al 2012).
compound,measurement,setting,value
"CCCCCCCCCC(CCOS(=O)(=O)O)OS(=O)(=O)O (stereo not drawn) [dodecyl (1,3) disulfate]",wettability (speed at which the contact angle of a water drop is broken) versus SDS,[1],higher that the SDS solution
same,surface tension value better than sodium dodecyl sulfate (SDS),[2],4 fold
same,foam decrease in volume over time,Foaming stability,2 fold
same,foam decrease slower than SDS,Foaming stability,3 times
same,foaming volume higher than SDS,Foaming stability,1.5 fold
same,outperformance of SDS at the specific CMC concentration (change of slope point of conductivity),[3],3.5 fold
